The values that follow come from patent publication US20250304567A1, “PYRROLIDIONE DERIVATIVES AS INHIBITORS OF NF KAPPA B INDUCING KINASE” (priority 2022, published 2025).

Usually IC50 stands for the concentration at which inhibition is half-maximal.

For assay [1], the system named is p-IKKa levels in L363 (NIK translocated multiple myeloma) cells. As to the kind of experiment: Effect of compounds on p-IKKa levels in L363 (NIK translocated multiple myeloma) cells (AlphaLISA SureFire Ultra p-IKKa Ser176/180). Conditions: average if tested more than once, read-out: Assay 2 IC50. Type of assay: cell-based, human. The gist of the method: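 L363 multiple myeloma cells, BAFF-stimulated overnight (250 ng/ml), then 6 h at 37 °C with compound (11-point 1:3 series, 0.3% DMSO) plus BAFF and 10 μM MG132. p-IKKa Ser176/180 read by AlphaLISA SureFire Ultra; IC50 from sigmoidal fit normalised to stimulated and unstimulated controls.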

The target of assay [2] is Recombinant Human NF-kappaB-Inducing Kinase (NIK/MAP3K14) (Homo sapiens, UniProt Q99558). The assay can be described thus: Inhibition of auto-phosphorylation of recombinant human NIK/MAP3K14 activity (AlphaScreen). In kind it is biochemical. Particulars: 5 μM ATP, 1 nM NIK, average if tested more than once. The gist of the method: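 GST-tagged NIK (1 nM) auto-phosphorylation with 5 μM ATP, 2 h at 25 °C, pH 7.5 Tris buffer, 0.7% DMSO; stopped with anti-phospho-IKK Ser176/180 antibody and read by AlphaScreen. Signal normalized to full-activity and no-enzyme/no-ATP controls; IC50 from sigmoidal fit of % inhibition vs log concentration.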
Chain of Recombinant Human NF-kappaB-Inducing Kinase (NIK/MAP3K14) (Q99558 whole entry): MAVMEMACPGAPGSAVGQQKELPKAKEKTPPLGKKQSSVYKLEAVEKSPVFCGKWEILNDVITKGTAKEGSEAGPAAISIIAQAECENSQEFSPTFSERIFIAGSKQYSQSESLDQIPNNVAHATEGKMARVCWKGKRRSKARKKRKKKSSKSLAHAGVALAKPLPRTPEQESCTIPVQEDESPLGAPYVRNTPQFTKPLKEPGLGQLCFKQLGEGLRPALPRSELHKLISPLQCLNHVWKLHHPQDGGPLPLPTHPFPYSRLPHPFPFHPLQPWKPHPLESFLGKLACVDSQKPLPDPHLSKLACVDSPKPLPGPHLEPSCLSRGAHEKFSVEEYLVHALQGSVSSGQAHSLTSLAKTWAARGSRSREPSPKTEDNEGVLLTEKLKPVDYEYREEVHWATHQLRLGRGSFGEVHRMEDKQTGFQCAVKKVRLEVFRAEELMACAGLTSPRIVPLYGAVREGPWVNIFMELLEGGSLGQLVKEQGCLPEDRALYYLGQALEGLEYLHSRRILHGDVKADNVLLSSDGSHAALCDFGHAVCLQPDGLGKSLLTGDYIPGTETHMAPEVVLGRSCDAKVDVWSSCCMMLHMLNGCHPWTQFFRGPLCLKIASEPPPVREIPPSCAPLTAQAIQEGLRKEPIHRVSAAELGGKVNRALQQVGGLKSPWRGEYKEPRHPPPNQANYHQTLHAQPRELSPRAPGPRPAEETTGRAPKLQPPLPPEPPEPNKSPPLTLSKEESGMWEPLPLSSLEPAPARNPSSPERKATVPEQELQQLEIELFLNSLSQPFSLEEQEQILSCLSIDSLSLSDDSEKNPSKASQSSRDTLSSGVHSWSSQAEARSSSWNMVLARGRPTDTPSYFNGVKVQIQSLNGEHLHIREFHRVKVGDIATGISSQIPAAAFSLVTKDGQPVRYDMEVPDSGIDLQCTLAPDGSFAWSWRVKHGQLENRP
(Alpha assays give light when donor and acceptor beads are brought close together.)

[3] abbreviates: Homo sapiens, L-363, p-IKKa levels in L363 cells.

Molecules are shown by their SMILES. Read-outs that look alike come from different tables or passages of the source. Bounds are passed on as bounds.

For the compound `CN1CC[C@@](O)(c2cccc(-c3nc(-c4ccnc(Nc5cn(C)nc5OCC(F)(F)F)n4)cs3)c2)C1=O` [Example 98, (R)-3-hydroxy-1-methyl-3-(3-(4-(2-((1-methyl-3-(2,2,2-trifluoroethoxy)-1H-pyrazol-4-yl)amino)pyrimidin-4-yl)thiazol-2-yl)phenyl)pyrrolidin-2-one], the IC50 in assay [1] (setting [3]) and in assay [2] was below 100 nM each time.
Take `CN1CCC(n2cc(Nc3nccc(-c4nc(-c5cccc([C@]6(O)CCN(C)C6=O)c5)cs4)n3)cn2)CC1` [Example 87, (R)-3-hydroxy-1-methyl-3-(3-(2-(2-((1-(1-methylpiperidin-4-yl)-1H-pyrazol-4-yl)amino)pyrimidin-4-yl)thiazol-4-yl)phenyl)pyrrolidin-2-one]: the results for the IC50 in assay [1] (setting [3]) and in assay [2] were 100 to 500 nM and below 100 nM, respectively.
As for `CN1CC[C@@](O)(c2cccc(-c3nc(-c4ccnc(Nc5cc6ccccn6n5)n4)cs3)c2)C1=O` [Example 277, (R)-3-Hydroxy-1-methyl-3-(3-(4-(2-(pyrazolo[1,5-a]pyridin-2-ylamino)pyrimidin-4-yl)thiazol-2-yl)phenyl)pyrrolidin-2-one], the results for the IC50 in assay [1] (setting [3]) and in assay [2] were above 501 nM and 100 to 500 nM, respectively.
On to `C[C@H](Nc1nccc(-n2ccc(-c3cccc([C@]4(O)CCN(C)C4=O)c3)n2)n1)c1cnn(C)c1` (single isomer, unassigned) [Example 93], for which the figures for the IC50 in assay [1] (setting [3]) and in assay [2] were 100 to 500 nM and below 100 nM, respectively.
For the compound `C[C@@H](Nc1nccc(-c2csc(-c3cccc([C@]4(O)CCN(C)C4=O)c3)n2)n1)c1ccccn1` [Example 185], the 50% inhibitory concentration (IC50) was above 501 nM in assay [1] (setting [3]) and below 100 nM in assay [2].
Regarding `CNC(=O)c1cc(Nc2nccc(-c3csc(-c4cccc([C@]5(O)CCN(C)C5=O)c4)n3)n2)n(CC(C)C)n1` [Example 13, (R)-5-((4-(2-(3-(3-Hydroxy-1-methyl-2-oxopyrrolidin-3-yl)phenyl)thiazol-4-yl)pyrimidin-2-yl)amino)-1-isobutyl-N-methyl-1H-pyrazole-3-carboxamide], the IC50 in assay [1] (setting [3]) was 100 to 500 nM; in assay [2], below 100 nM.
As for `CN1CC[C@@](O)(c2cccc(-c3cccc(-c4ccnc(NCCCO)n4)n3)c2)C1=O` [Example 23, (R)-3-Hydroxy-3-(3-(6-(2-((3-hydroxypropyl)amino)pyrimidin-4-yl)pyridin-2-yl)phenyl)-1-methylpyrrolidin-2-one], the IC50 in assay [1] (setting [3]) and in assay [2] was above 501 nM in each case.
With `CN1CC[C@@](O)(c2cccc(-c3nc(-c4ccnc(NCCS(C)(=O)=O)n4)cs3)c2)C1=O` [Example 173], the IC50 is above 501 nM in assay [1] (setting [3]) and 100 to 500 nM in assay [2].
For `CN1CC[C@@](O)(c2cncc(-c3csc(-c4ccnc(Nc5cnn(C)c5)n4)n3)c2)C1=O` (single isomer, unassigned) [Example 152, (R)-3-hydroxy-1-methyl-3-(5-(2-(2-((1-methyl-1H-pyrazol-4-yl)amino)pyrimidin-4-yl)thiazol-4-yl)pyridin-3-yl)pyrrolidin-2-one or (S)-3-hydroxy-1-methyl-3-(5-(2-(2-((1-methyl-1H-pyrazol-4-yl)amino)pyrimidin-4-yl)thiazol-4-yl)pyridin-3-yl)pyrrolidin-2-one], the IC50 in assay [1] (setting [3]) was 100 to 500 nM; in assay [2] it was below 100 nM.
On to `CN1CC[C@@](O)(c2cccc(-c3nc(-c4ccnc(Nc5cn(C)nc5OCC(F)F)n4)cs3)c2)C1=O` [Example 96, (R)-3-(3-(4-(2-((3-(2,2-difluoroethoxy)-1-methyl-1H-pyrazol-4-yl)amino)pyrimidin-4-yl)thiazol-2-yl)phenyl)-3-hydroxy-1-methylpyrrolidin-2-one], for which the IC50 in assay [1] (setting [3]) and in assay [2] was below 100 nM each time.
As for `CN1CC[C@@](O)(c2cccc(-c3nc(-c4ccnc(Nc5cc(C6CC6)nn5C)n4)cs3)c2)C1=O` [Example 164, (R)-3-(3-(4-(2-((3-Cyclopropyl-1-methyl-1H-pyrazol-5-yl)amino)pyrimidin-4-yl)thiazol-2-yl)phenyl)-3-hydroxy-1-methylpyrrolidin-2-one], the figures for the IC50 in assay [1] (setting [3]) and in assay [2] were 100 to 500 nM and below 100 nM, respectively.
On to `Cc1ncccc1CNc1nccc(-c2csc(-c3cccc([C@]4(O)CCN(C)C4=O)c3)n2)n1` [Example 219], for which the IC50 was above 501 nM in assay [1] (setting [3]) and below 100 nM in assay [2].
For `COc1ccnc(Nc2nccc(-c3csc(-c4cccc([C@]5(O)CCN(C)C5=O)c4)n3)n2)c1` [Example 162, (R)-3-Hydroxy-3-(3-(4-(2-((4-methoxypyridin-2-yl)amino)pyrimidin-4-yl)thiazol-2-yl)phenyl)-1-methylpyrrolidin-2-one], the IC50 was above 501 nM in assay [1] (setting [3]) and below 100 nM in assay [2].
Take `CN1CC[C@@](O)(c2cccc(-c3nc(-c4ccnc(Nc5ccn(C)n5)n4)co3)c2)C1=O` [Example 1, (R)-3-hydroxy-1-methyl-3-(3-(4-(2-((1-methyl-1H-pyrazol-3-yl)amino)pyrimidin-4-yl)oxazol-2-yl)phenyl)pyrrolidin-2-one]: the IC50 in assay [1] (setting [3]) was 100 to 500 nM; in assay [2] it was below 100 nM.
As to `CC(Nc1nccc(-c2nc(-c3cccc(C4(O)CCN(C)C4=O)c3)cs2)n1)c1ccn(C)n1` (single isomer, unassigned) [Example 51], the IC50 in assay [1] (p-IKKa levels in L363 cells) was 100 to 500 nM; in assay [2], below 100 nM.
Take `CN1CC[C@@](O)(c2cccc(-n3ccc(-c4ccnc(Nc5ccn(C)n5)n4)n3)c2)C1=O` [Example 55, (R)-3-hydroxy-1-methyl-3-(3-(3-(2-((1-methyl-1H-pyrazol-3-yl)amino)pyrimidin-4-yl)-1H-pyrazol-1-yl)phenyl)pyrrolidin-2-one]: the results for the IC50 in assay [1] (setting [3]) and in assay [2] were 100 to 500 nM and below 100 nM, respectively.
For `Cc1cccnc1CNc1nccc(-c2csc(-c3cccc([C@]4(O)CCN(C)C4=O)c3)n2)n1` [Example 206], the IC50 in assay [1] (setting [3]) was above 501 nM; in assay [2] it was below 100 nM.
As for `CN1CC[C@@](O)(c2cccc(-c3nc(-c4ccnc(NCc5ccccn5)n4)cs3)c2)C1=O` [Example 182], the IC50 in assay [1] (setting [3]) is above 501 nM; in assay [2] it was 100 to 500 nM.
For the compound `CN1CCC(O)(c2cc(C#N)cc(-c3csc(-c4ccnc(Nc5ccn(C)n5)n4)n3)c2)C1=O` (single isomer, unassigned) [Example 58, 3-(3-hydroxy-1-methyl-2-oxopyrrolidin-3-yl)-5-(2-(2-((1-methyl-1H-pyrazol-3-yl)amino)pyrimidin-4-yl)thiazol-4-yl)benzonitrile], the IC50 in assay [1] (p-IKKa levels in L363 cells) and in assay [2] was above 501 nM each time.
As to `CN1CCC(O)(c2ccnc(-c3nc(-c4ccnc(Nc5ccn(C)n5)n4)cs3)c2)C1=O` (single isomer, unassigned) [Example 33, 3-hydroxy-1-methyl-3-(2-(4-(2-((1-methyl-1H-pyrazol-3-yl)amino)pyrimidin-4-yl)thiazol-2-yl)pyridin-4-yl)pyrrolidin-2-one], the IC50 in assay [1] (p-IKKa levels in L363 cells) and in assay [2] was above 501 nM in each case.
Regarding `Cc1cc(Nc2nccc(-c3csc(-c4cccc([C@]5(O)CCN(C)C5=O)c4)n3)n2)ncn1` [Example 106, (R)-3-hydroxy-1-methyl-3-(3-(4-(2-((6-methylpyrimidin-4-yl)amino)pyrimidin-4-yl)thiazol-2-yl)phenyl)pyrrolidin-2-one], the IC50 in assay [1] (setting [3]) is above 501 nM; in assay [2], below 100 nM.
The matching figures for `CN1CC[C@@](O)(c2cccc(-c3nc(-c4ccnc(NCc5cnn(C)c5)n4)cs3)c2)C1=O` [Example 183]: above 501 nM and below 100 nM.
For the compound `Cc1cccc(CNc2nccc(-c3csc(-c4cccc([C@]5(O)CCN(C)C5=O)c4)n3)n2)n1` [Example 205], the IC50 in assay [1] (setting [3]) is above 501 nM; in assay [2] it was below 100 nM.
For `CN1CC[C@@](O)(c2ccnc(-c3ccn(-c4ccnc(Nc5cn(CC(F)F)nc5OC5CC5)n4)n3)c2)C1=O` (single isomer, unassigned) [Example 154, (R)-3-(2-(1-(2-((3-cyclopropoxy-1-(2,2-difluoroethyl)-1H-pyrazol-4-yl)amino)pyrimidin-4-yl)-1H-pyrazol-3-yl)pyridin-4-yl)-3-hydroxy-1-methylpyrrolidin-2-one or (S)-3-(2-(1-(2-((3-cyclopropoxy-1-(2,2-difluoroethyl)-1H-pyrazol-4-yl)amino)pyrimidin-4-yl)-1H-pyrazol-3-yl)pyridin-4-yl)-3-hydroxy-1-methylpyrrolidin-2-one], the IC50 in assay [1] (setting [3]) and in assay [2] was below 100 nM each time.
In the case of `CN1CC[C@@](O)(c2cccc(-c3nc(-c4ccnc(Nc5cnn(C6CCOC6)c5)n4)cs3)c2)C1=O` (single isomer, unassigned) [Example 19], the IC50 in assay [1] (p-IKKa levels in L363 cells) and in assay [2] was below 100 nM throughout.
`COc1cccnc1Nc1nccc(-c2csc(-c3cccc([C@]4(O)CCN(C)C4=O)c3)n2)n1` [Example 161, (R)-3-Hydroxy-3-(3-(4-(2-((3-methoxypyridin-2-yl)amino)pyrimidin-4-yl)thiazol-2-yl)phenyl)-1-methylpyrrolidin-2-one]: the IC50 in assay [1] (setting [3]) and in assay [2] was above 501 nM throughout.
For the compound `CN1CC[C@@](O)(c2cccc(-c3nc(-c4nc(Nc5ccn(C)n5)ncc4F)cs3)c2)C1=O` [Example 52, (R)-3-(3-(4-(5-Fluoro-2-((1-methyl-1H-pyrazol-3-yl)amino)pyrimidin-4-yl)thiazol-2-yl)phenyl)-3-hydroxy-1-methylpyrrolidin-2-one], the IC50 was above 501 nM in assay [1] (setting [3]) and 100 to 500 nM in assay [2].
